Series [1] relates to U-251. The series can be described thus: Induction of apoptosis in human U-251 cells assessed as enlargement of intracellular space at 0.375 to 6 uM measured after 72 hrs by Giemsa staining based microscopic analysis. It counts as functional, cell-based. The settings on record: dose 0.375-6 µM.
Series [2] deals with U-251. The series can be described thus: Antiproliferative activity against human U-251 cells assessed as release of LDH in supernatant and measured after 72 hrs by microplate reader assay. It counts as functional, cell-based. Conditions: DDE = dose-dependent effect.
In series [3] the test system is U-87MG ATCC. The experiment in a line: Induction of apoptosis in human U-87 MG cells assessed as morphological changes at 0.075 to 1.20 uM measured after 72 hrs by Giemsa staining based microscopic analysis. It counts as functional, cell-based. Conditions: dose 0.075-1.2 µM.
The test system of series [4] is U-251. The series can be described thus: Induction of apoptosis in human U-251 cells assessed as decrease in cell size at 0.375 to 6 uM measured after 72 hrs by Giemsa staining based microscopic analysis. The settings on record: dose 0.375-6 µM. The series is classed as functional.
For series [5], the system named is U-251. The experiment in a line: Induction of apoptosis in human U-251 cells assessed as formation of spindle shaped cells at 0.375 to 6 uM measured after 72 hrs by Giemsa staining based microscopic analysis. The series is classed as functional, cell-based. Conditions: dose 0.375-6 µM.
Series [6] in a line: Induction of apoptosis in human U-87 MG cells assessed as viable cells at 0.075 uM incubated for 72 hrs by Annexin V-FITC/PI staining based flow cytometry method (reference value: 96.84 %). It counts as functional, U-87MG ATCC. Conditions: read-out: Activity. On the technique in general: Flow cytometry measures light scatter and fluorescence of single cells or particles in a stream.

Series [7] deals with U-251. The experiment in a line: Induction of apoptosis in human U-251 cells assessed as late apoptotic cells at 6 uM incubated for 72 hrs by Annexin V-FITC/PI staining based flow cytometry method (Rvb =1.31 %). The series is classed as functional.
Series [8] concerns U-251. The series can be described thus: Induction of apoptosis in human U-251 cells assessed as necrotic cells at 6 uM incubated for 72 hrs by Annexin V-FITC/PI staining based flow cytometry method (Rvb =0.51 %). It counts as functional.
Series [9] relates to U-251. The series can be described thus: Induction of apoptosis in human U-251 cells assessed as viable cells at 1.50 uM incubated for 72 hrs by Annexin V-FITC/PI staining based flow cytometry method (reference value: 96.22 %). The series is classed as functional. Conditions: read-out: Activity.
For series [10], the system named is U-251. The experiment in a line: Induction of apoptosis in human U-251 cells assessed as early apoptotic cells at 1.50 uM incubated for 72 hrs by Annexin V-FITC/PI staining based flow cytometry method (Rvb =1.96 %). It counts as functional. Conditions: dose 1.5 µM.
In series [11] the test system is U-87MG ATCC. The experiment in a line: Antimigratory activity in human U-87 MG cells assessed as inhibition of cell migration by measuring wound closure at 0.125 to 0.50 uM and measured after 24 hrs by wound healing assay. The series is classed as functional, cell-based. Conditions: dose 0.125-0.5 µM, DDE = dose-dependent effect.
Series [12] is described as follows: Tmax in Sprague-Dawley rat plasma at 100 mg/kg, ip and measured upto 240 mins by LC-MS analysis. The series is classed as ADME, organism-based.
The nature of series [13]: Cmax in Sprague-Dawley rat plasma at 100 mg/kg, ip and measured upto 240 mins by LC-MS analysis. Also on record: dose 100 mg/kg, time < 240 min, route ip. The series is classed as ADME, organism-based.
Series [14] in a line: Cmax in Sprague-Dawley rat brain at 100 mg/kg, ip and measured upto 240 mins by LC-MS analysis. It counts as ADME, organism-based. Also on record: time < 240 min, dose 100 mg/kg, route ip.
Series [15] in a line: AUC (0 to t) in Sprague-Dawley rat brain at 100 mg/kg, ip and measured upto 240 mins by LC-MS analysis. It counts as ADME, organism-based. Also on record: dose 100 mg/kg, time < 240 min, route ip.
A short description of series [16]: Acute toxicity in Kunming mouse assessed as pathological changes in heart at 600 mg/kg, ip measured after 24 hrs by H and E staining analysis. The series is classed as organism-based. Conditions: in vivo.
The nature of series [17]: Acute toxicity in Kunming mouse assessed as pathological changes in liver at 600 mg/kg, ip measured after 24 hrs by H and E staining analysis. It counts as organism-based. The settings on record: in vivo.
Series [18] in a line: Acute toxicity in Kunming mouse assessed as pathological changes in lung at 600 mg/kg, ip measured after 24 hrs by H and E staining analysis. It counts as organism-based. Conditions: in vivo.
A short description of series [19]: Acute toxicity in Kunming mouse assessed as pathological changes in kidney at 600 mg/kg, ip measured after 24 hrs by H and E staining analysis. It counts as organism-based. The settings on record: in vivo.
The subject of series [20] is U-251. The series can be described thus: Downregulation of pRb gene expression in human U-251 cells at 0.075 to 1.2 uM measured after 72 hrs by western blot analysis. The series is classed as functional, cell-based. The settings on record: dose 0.075-1.2 µM.
Series [21] relates to U-251. The series can be described thus: Upregulation of p16 INK4a gene expression in human U-251 cells at 0.075 to 1.2 uM measured after 72 hrs by western blot analysis. The settings on record: dose 0.075-1.2 µM. It counts as functional, cell-based. A general note: A western blot detects proteins with antibodies after separation by electrophoresis.

Active and inactive are the calls of the source. The calls are words filed in the database; no cut-off is given here.

In the case of `COCCN1CCN(c2ccc(F)cc2C(=O)Nc2ccc(CNC(=O)OCc3cccnc3)cc2)CC1`, the result in [1], in series [3], in series [4], in [5], in series [20] and in series [21] was Active. For the same molecule, the Activity result was “Dde” in series [2]; 5.75% in [7]; 2.63% in series [8]; 2.9% in series [10]; “Dde” in [11]; “Non-Toxic” in series [16]. Besides, the Activity entry in series [17], in series [18] and in series [19] was “Non-Toxic” each time. Further, the viability at 0.075 µM in series [6] amounted to 96.5%. Also, the viability at 1.5 µM in series [9] was determined as 93.7%. Further, the Tmax (commonly the time from dosing to the highest level) in series [12] was 30 min. For the same molecule, the values for the peak concentration (Cmax) in series [13] and in series [14] were 71.7 µg/mL and 92.5 µg/mL, respectively. The exposure AUC(0-t) – broadly, the area under the concentration-time curve up to a stated or last time point – at 4 h in series [15] was found to be 97 µg·h/mL.

These data come from ChEMBL document CHEMBL5131385, “Novel piperazine based benzamide derivatives as potential anti-glioblastoma agents inhibiting cell proliferation and cell cycle progression” (Eur J Med Chem, 2022).
